In publication PMC8849072, “Sudapyridine (WX-081), a Novel Compound against Mycobacterium tuberculosis” (Microbiology Spectrum, 2022):
≈ marks a conversion by molar mass, not a printed value.

Assays:
M. tuberculosis H37Rv [1] = test: MIC by microplate alamarBlue assay (MABA); format: cell-based, Mycobacterium tuberculosis; conditions: for MIC: Mycobacterium tuberculosis, H37RV
[2] = test system: M. tuberculosis susceptible strain 14241; test: MIC by microplate alamarBlue assay (MABA); format: cell-based, Mycobacterium tuberculosis; conditions: for MIC: Mycobacterium tuberculosis
[3] = test system: M. tuberculosis susceptible strain 14242; test: MIC by microplate alamarBlue assay (MABA); format: cell-based, Mycobacterium tuberculosis; conditions: for MIC: Mycobacterium tuberculosis
[4] = test system: M. tuberculosis susceptible strain 14286; test: MIC by microplate alamarBlue assay (MABA); format: cell-based, Mycobacterium tuberculosis; conditions: for MIC: Mycobacterium tuberculosis
[5] = test system: M. tuberculosis susceptible strain 14280; test: MIC by microplate alamarBlue assay (MABA); format: cell-based, Mycobacterium tuberculosis; conditions: for MIC: Mycobacterium tuberculosis
[6] = 14-day repeated oral dose toxicity and toxicokinetic head-to-head study in beagle dogs; format: in vivo, beagle dog; conditions: 14 days; for ECG: QT interval / cTnI: 200 mg/kg; for cTnI: one of three males, all others BLQ
[7] = target: T1, human ether-á-go-go-related (hERG) ion channel (Homo sapiens, UniProt Q12809); test: hERG manual patch-clamp assay in hERG-CHO cell; format: cell-based
T1 construct: expressed in transfected cells; host or cells: hERG-CHO cell (CHO cells expressing hERG)
T1 sequence (Q12809 whole entry): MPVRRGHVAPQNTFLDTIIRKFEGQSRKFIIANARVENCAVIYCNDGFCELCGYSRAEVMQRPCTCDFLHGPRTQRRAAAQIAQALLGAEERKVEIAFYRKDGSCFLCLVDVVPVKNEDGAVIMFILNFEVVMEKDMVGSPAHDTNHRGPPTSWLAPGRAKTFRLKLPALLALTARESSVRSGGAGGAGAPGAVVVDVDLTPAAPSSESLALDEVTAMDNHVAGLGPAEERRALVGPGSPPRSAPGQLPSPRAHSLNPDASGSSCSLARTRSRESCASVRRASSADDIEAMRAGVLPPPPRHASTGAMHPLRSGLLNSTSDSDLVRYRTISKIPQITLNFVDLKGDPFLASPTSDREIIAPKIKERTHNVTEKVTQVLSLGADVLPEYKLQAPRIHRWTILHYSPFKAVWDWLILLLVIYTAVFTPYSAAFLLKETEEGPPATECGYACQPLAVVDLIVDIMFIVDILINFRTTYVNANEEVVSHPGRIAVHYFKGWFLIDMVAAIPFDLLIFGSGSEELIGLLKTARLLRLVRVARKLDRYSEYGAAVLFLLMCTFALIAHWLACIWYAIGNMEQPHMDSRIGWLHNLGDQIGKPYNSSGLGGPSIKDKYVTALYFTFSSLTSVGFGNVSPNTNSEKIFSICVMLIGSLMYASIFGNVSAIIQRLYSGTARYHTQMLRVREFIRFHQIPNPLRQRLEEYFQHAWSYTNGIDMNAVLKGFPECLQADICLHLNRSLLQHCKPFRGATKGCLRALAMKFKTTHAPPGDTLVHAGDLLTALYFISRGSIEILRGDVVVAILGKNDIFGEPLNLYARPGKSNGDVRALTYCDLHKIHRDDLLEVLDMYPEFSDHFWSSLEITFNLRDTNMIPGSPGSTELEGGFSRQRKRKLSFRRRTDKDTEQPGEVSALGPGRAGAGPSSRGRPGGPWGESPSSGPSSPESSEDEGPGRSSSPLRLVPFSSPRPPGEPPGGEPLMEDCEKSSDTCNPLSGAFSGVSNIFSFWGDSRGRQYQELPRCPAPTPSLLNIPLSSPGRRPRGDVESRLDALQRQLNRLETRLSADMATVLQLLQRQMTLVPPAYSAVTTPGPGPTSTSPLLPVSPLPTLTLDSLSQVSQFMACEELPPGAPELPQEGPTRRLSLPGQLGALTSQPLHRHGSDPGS
Experimental: A human ether-á-go-go-related (hERG) ion channel in vitro assay was performed in Shanghai Institute of Materia Medica, Shanghai, for the evaluation of cardiac liability testing. The assay was a manual patch-clamp method using electrophysiology in an hERG-CHO cell.

[8] = test system: M. tuberculosis susceptible strain 14480; test: MIC by microplate alamarBlue assay (MABA); format: cell-based, Mycobacterium tuberculosis; conditions: for MIC: Mycobacterium tuberculosis
[9] = cited from earlier work
[10] = Pharmacokinetic study in rats; format: in vivo, rat; conditions: Rat; for At 96 h lung/plasma: lung: lung exposure at 96 h (first number of the pair); for At 96 h lung/plasma: plasma: plasma exposure at 96 h (second number of the pair); for AUC(0-inf): read-out: AUC0-inf; for AUC(0-t): read-out: AUC0-last; for half-life: plasma
Experimental: (§1) The BALB/c mice, rats, and beagle dogs were used in the PK study and fasted overnight before dosing. Animal doses were administered in two ways. […] Plasma samples were collected from three animals at each time point. Plasma concentrations were determined by liquid chromatography-tandem mass spectrometry (LC-MS/MS). The bioanalytical method by LC-MS/MS for pharmacokinetic (PK) studies in animal and toxicokinetic (TK) in tox studies have been validated. The total area under the concentration-time curve (AUC0-inf), the elimination half-time (t1/2), the peak concentration (Cmax), and the time to reach peak concentration (Tmax) of samples were determined directly from the experimental data using WinNonlin V6.2.1.

M. tuberculosis H37Rv [11] = test: MBC determination (CFU-based); conditions: 7 days incubation, 3 log10 CFU decrease
[12] = Pharmacokinetic study in mice; format: in vivo, BALB/c mice; conditions: Mice; for AUC(0-inf): read-out: AUC0-inf; for AUC(0-t): read-out: AUC0-last; for half-life: plasma; for At 96 h lung/plasma: lung: lung exposure at 96 h (first number of the pair); for At 96 h lung/plasma: plasma: plasma exposure at 96 h (second number of the pair)
Experimental: as §1

[13] = test system: M. tuberculosis susceptible strain 14242; test: MBC determination (CFU-based); conditions: 7 days incubation, 3 log10 CFU decrease
[14] = beagle dogs, 200 mg/kg oral, listed as bedaquiline fumarate
[15] = BALB/c, mouse, in vivo, Iv. 1.0 mg/kg
[16] = BALB/c, mouse, in vivo, Po. 6.25 mg/kg

COc1c(N2C[C@@H]3CCCN[C@@H]3C2)c(F)cc2c(=O)c(C(=O)O)cn(C3CC3)c12 [MFX, moxifloxacin]
MIC (M. tuberculosis H37Rv [1]): 0.045 µg/mL (≈ 0.112 µM) | MIC [2]: 0.122 µg/mL (≈ 0.304 µM) | MIC [3]: 0.037 µg/mL (≈ 0.0922 µM) | MIC [4]: 0.039 µg/mL (≈ 0.0972 µM) | MIC [5]: 0.035 µg/mL (≈ 0.0872 µM)

COc1nc2ccc(Br)cc2cc1[C@@H](c1ccccc1)[C@@](O)(CCN(C)C)c1cccc2ccccc12.O=C(O)/C=C/C(=O)O [Bedaquiline fumarate, bedaquiline fumarate]
mortality and moribundity ([6]; 200 mg/kg oral once daily, male and female dogs): did not result in mortality and moribundity | ECG: HR ([6]; beagle dogs, 200 mg/kg oral): An increased incidence of first- and second-degree atrioventricular block | qualitative ECG changes associated with oral administration ([6]; beagle dogs, 200 mg/kg oral): increased incidence of first and second-degree atrioventricular (AV) block | ECG: QT interval ([6]; beagle dogs, 200 mg/kg oral): Significant QT interval prolongation | ECG: QT interval [6, 14]: significant QTc interval prolongation | cTnI ([6]; beagle dogs, 200 mg/kg oral): 440 (1/3 male) pg/mL | cTnI [6, 14]: 440 pg/mL | IC50 ([7]; parent compound): > 30000 nM

CO[C@H]1/C=C/O[C@@]2(C)Oc3c(C)c(O)c4c(O)c(c(/C=N/N5CCN(C)CC5)c(O)c4c3C2=O)NC(=O)/C(C)=C\C=C\[C@H](C)[C@H](O)[C@@H](C)[C@@H](O)[C@@H](C)[C@H](OC(C)=O)[C@@H]1C [RFP, rifampicin]
MIC (M. tuberculosis H37Rv [1]): 0.014 µg/mL (≈ 0.017 µM) | MIC [2]: 0.035 µg/mL (≈ 0.0425 µM) | MIC [8]: 0.046 µg/mL (≈ 0.0559 µM) | MIC [3]: 0.066 µg/mL (≈ 0.0802 µM) | MIC [4]: < 0.02 µg/mL | MIC [5]: 0.057 µg/mL (≈ 0.0693 µM)

CNCC[C@@](O)(c1cccc2ccccc12)[C@H](c1ccccc1)c1cc2cc(Br)ccc2nc1OC [BDQ-M2]
IC50 ([7]; metabolites): 1730 nM

NC[C@H]1O[C@H](O[C@H]2[C@H](O)[C@@H](O[C@H]3O[C@H](CO)[C@@H](O)[C@H](N)[C@H]3O)[C@H](N)C[C@@H]2N)[C@H](O)[C@@H](O)[C@@H]1O [KM, kanamycin]
MICs (M. tuberculosis H37Rv [1]; H37Rv): 0.730 µg/mL | MICs [2]: 2.417 µg/mL | MICs [8]: 1.907 µg/mL | MICs [3]: 1.146 µg/mL | MICs [4]: 1.154 µg/mL | MICs [5]: 1.219 µg/mL

NNC(=O)c1ccncc1 [INH, isoniazid]
MIC (M. tuberculosis H37Rv [1]): 0.031 µg/mL (≈ 0.226 µM) | MIC [2]: 0.034 µg/mL (≈ 0.248 µM) | MIC [8]: < 0.02 µg/mL | MIC [3]: 0.028 µg/mL (≈ 0.204 µM) | MIC [4]: 0.03 µg/mL (≈ 0.219 µM) | MIC [5]: 0.024 µg/mL (≈ 0.175 µM)

COc1nc2ccc(Br)cc2cc1[C@@H](c1ccccc1)[C@@](O)(CCN(C)C)c1cccc2ccccc12 [BDQ, bedaquiline]
elimination half-life [9]: 5.5 months | MIC (M. tuberculosis H37Rv [1]): 0.012 µg/mL (≈ 0.0216 µM) | At 96 h lung/plasma: lung ([10]; Iv. 1.0 mg/kg): 62.9 | At 96 h lung/plasma: plasma ([10]; Iv. 1.0 mg/kg): 1.89 | At 96 h lung/plasma: lung ([10]; Po. 5.0 mg/kg): 58.8 | At 96 h lung/plasma: plasma ([10]; Po. 5.0 mg/kg): 1.52 | AUC(0-inf) ([10]; in vivo, Iv. 1.0 mg/kg): 1930 ng·h/mL | AUC(0-t) ([10]; in vivo, Iv. 1.0 mg/kg): 1830 ng·h/mL | Vd ([10]; in vivo, Iv. 1.0 mg/kg, read-out: Vdss): 10.3 L/kg | AUC(0-inf) ([10]; in vivo, Po. 5.0 mg/kg): 2680 ng·h/mL | AUC(0-t) ([10]; in vivo, Po. 5.0 mg/kg): 2610 ng·h/mL | Cmax ([10]; in vivo, Po. 5.0 mg/kg, read-out: Cmax): 354 ng/mL | bioavailability ([10]; in vivo, Po. 5.0 mg/kg, read-out: F): 27.7% | Tmax ([10]; in vivo, Po. 5.0 mg/kg, read-out: Tmax): 0.83 h | half-life ([10]; Iv. 1.0 mg/kg): 37.6 h | half-life ([10]; Po. 5.0 mg/kg): 29.3 h | MBCs (M. tuberculosis H37Rv [11]): 0.156 µg/mL | MIC [2]: 0.029 µg/mL (≈ 0.0522 µM) | AUC(0-inf) [12, 15]: 2160 ng·h/mL | AUC(0-t) [12, 15]: 2100 ng·h/mL | Vd ([12]; BALB/c, mouse, in vivo, Iv. 1.0 mg/kg, read-out: Vdss): 6.21 L/kg | AUC(0-inf) [12, 16]: 6360 ng·h/mL | AUC(0-t) [12, 16]: 6040 ng·h/mL | Cmax ([12]; BALB/c, mouse, in vivo, Po. 6.25 mg/kg, read-out: Cmax): 608 ng/mL | bioavailability ([12]; BALB/c, mouse, in vivo, Po. 6.25 mg/kg, read-out: F): 47.1% | Tmax ([12]; BALB/c, mouse, in vivo, Po. 6.25 mg/kg, read-out: Tmax): 5.33 h | half-life ([12]; BALB/c, mouse, Iv. 1.0 mg/kg): 21.3 h | half-life ([12]; BALB/c, mouse, Po. 6.25 mg/kg): 47.6 h | At 96 h lung/plasma: lung ([12]; Iv. 1.0 mg/kg): 27.1 | At 96 h lung/plasma: plasma ([12]; Iv. 1.0 mg/kg): 1.31 | At 96 h lung/plasma: lung ([12]; Po. 6.25 mg/kg): 135 | At 96 h lung/plasma: plasma ([12]; Po. 6.25 mg/kg): 4.56 | MBCs [13]: 0.156 µg/mL | MIC [8]: 0.037 µg/mL (≈ 0.0666 µM) | MIC [3]: 0.031 µg/mL (≈ 0.0558 µM) | MIC [4]: 0.043 µg/mL (≈ 0.0774 µM) | MIC [5]: 0.053 µg/mL (≈ 0.0954 µM)
